This assay concerns the target T1, Adenosine receptor A3 (Homo sapiens, UniProt P0DMS8).
T1 sequence (P0DMS8 whole entry): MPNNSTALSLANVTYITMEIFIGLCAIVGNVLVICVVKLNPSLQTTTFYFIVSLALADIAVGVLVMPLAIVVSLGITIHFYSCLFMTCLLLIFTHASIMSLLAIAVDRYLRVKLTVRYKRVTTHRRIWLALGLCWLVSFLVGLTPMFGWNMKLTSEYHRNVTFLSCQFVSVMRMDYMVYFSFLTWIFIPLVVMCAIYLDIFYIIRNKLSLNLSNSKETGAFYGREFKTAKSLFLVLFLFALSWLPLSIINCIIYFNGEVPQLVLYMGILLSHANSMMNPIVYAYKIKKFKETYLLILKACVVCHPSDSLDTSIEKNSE
Briefly: Binding Assay.

The record followed here is BindingDB's records for patent US9018371 (Fm Therapeutics, 2015).

Procedure: Incubation for 1 hr in a 370C incubator was followed by rapid filtration in a vacuum using a cell collector (TOMTEC, U.S.A.). Subsequently, the test tubes were washed three times with 3 ml of the buffer before radioactivity was measured using a -counter.

Usually Ki stands for a dissociation constant, usually derived from enzyme kinetics or from competition with a known ligand. Higher therefore signals lower affinity. For `COc1ccccc1CNc1nc(Cl)nc2c1ncn2[C@@H]1SCC(O)[C@@H]1O` (stereo partly specified) [US9018371, 7], the inhibition constant (Ki) was determined as 0.0199 µM.
